Patent US20110306623A1, “NOVEL COMPOUNDS COMPRISING A 3-(5-ALKOXYPYRIMIDIN-2-YL) PYRIMIDIN-4(3H)-ONE STRUCTURE AND DRUGS THAT COMPRISE SAME” (KOWA COMPANY, LTD., priority 2009, published 2011)

Key:
[1] = test system: angiotensin II-induced blood pressure increase; assay: Inhibitory activity on angiotensin II-induced blood pressure increase; assay type: in vivo; conditions: male SD rat, FIG. 1
Method: Inhibitory Activity on Angiotensin II-Induced Blood Pressure Increase
The in vivo angiotensin II antagonist activity of the Compound a and the Compound B was evaluated by following, as an index, the blood pressure increase induced by intravenous injection of angiotensin II.
A male SD rat (10 to 12-week old) was anesthetized with pentobarbital, and a cannular for measuring blood pressure was inserted into the right femoral artery while a cannular for injecting angiotensin II was inserted into the right jugular vein, the cannulars were then fixed on the back side of the neck as exposed.
One day after the surgery, the rat was subjected to the test under unanaesthetized, unstrained, and unfasted condition. The artery cannular was connected to a blood pressure transducer, and the blood pressure and heart rate were continuously recorded on a polygraph with an aid of an amplifier. Once the blood pressure and heart rate are stabilized, angiotensin II (0.1 nmol/kg) was administered via the vein cannular. The angiotensin II was repeatedly administered until a stable hypertensive response is obtained. After that, the Compound a (1 mg/kg or 3 mg/kg) or the Compound B (3 mg/kg) was orally administered, and the hypertensive response induced by angiotensin II was observed over time until 24 hours after the administration. […]

human PPAR 2 = biological target: T1, human PPAR 2 (Homo sapiens, UniProt P37231); assay: PPAR activating activity, Gal4-PPAR chimera luciferase transfection assay using COS7 cells; assay type: cell-based; conditions: relative to Rosiglitazone
T1 construct: the amino acids 182 to 505 of human PPAR 2; expressed in transfected cells; host or cells: COS7 cells
T1 sequence (P37231 182-505): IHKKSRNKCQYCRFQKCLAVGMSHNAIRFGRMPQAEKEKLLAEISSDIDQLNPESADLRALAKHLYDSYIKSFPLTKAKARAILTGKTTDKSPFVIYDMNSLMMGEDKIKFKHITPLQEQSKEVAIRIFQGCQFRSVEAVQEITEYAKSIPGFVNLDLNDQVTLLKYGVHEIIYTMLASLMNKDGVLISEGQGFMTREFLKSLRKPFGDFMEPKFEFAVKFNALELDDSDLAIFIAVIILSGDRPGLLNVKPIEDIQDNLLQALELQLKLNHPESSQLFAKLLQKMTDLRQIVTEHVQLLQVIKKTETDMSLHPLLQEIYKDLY
Method: PPAR Activating Activity The agonist activity of the Compound a and the Compound b on PPAR was measured based on the transfection assay using COS7 cells (DS Pharma Biomedical Co., Ltd., Osaka, Japan), which are the cell line derived from the kidney of the African green monkey. COS7 cells were cultured under 5% CO2 concentration, and DMEM medium containing 10% fetal bovine serum, glutamic acid, and antibiotics was used as a medium. As an expression vector, a chimera in which DNA binding domain of Gal4 which is a yeast transcription factor, and ligand binding domain of human PPAR 2 are fused, i.e., a fused product between the amino acids 1 to 147 of Gal4 transcription factor and the amino acids 182 to 505 of human PPAR 2, was used. Furthermore, as a reporter vector, a firefly luciferase containing five copies of Gal4 recognition sequence in the promoter region was used. Plasmid transfection of the cells was performed according to a method which uses jetPEI (trade name, manufactured by Funakoshi Co., Ltd., Tokyo, Japan). […] After that, the luciferase activity and -galactosidase activity in the cell lysis solution were measured. […] The percentage of the luciferase activity of the Compound a or the Compound b (1 to 30 mol/L) was calculated when the luciferase activity of Rosiglitazone (3 to 10 mol/L) is 100% and the luciferase activity in the absence of the Compound a or the Compound b is 0%. […]

percentage of the luciferase activity (Rosiglitazone = 100%, absence of compound = 0%) (human PPAR 2): 24%
Structure (SMILES): CCCCc1nc(C)n(-c2ncc(OC)cn2)c(=O)c1Cc1ccc(-c2ccccc2-c2noc(=O)[nH]2)cc1 [Compound b, 3-{4′-{[6-butyl-3-(5-methoxypyrimidin-2-yl)-2-methylpyrimidin-4(3H)-on-5-yl]methyl}biphenyl-2-yl}-1,2,4-oxadiazol-5(4H)-one]
effect of inhibiting the angiotensin II-induced blood pressure increase, compared with Compound a 3 mg/kg ([1]; oral 3 mg/kg): substantially the same degree as the administration of the Compound a with dosage of 3 mg/kg
inhibitory action on angiotensin II-induced blood pressure increase, 24 hours after the administration ([1]; oral, Compound a 1 or 3 mg/kg, Compound B 3 mg/kg, 24 hours after administration): its effect was almost completely lost 24 hours after the administration
